PubChem BioAssay AID206 (DTP/NCI, 2004)
Inconclusive results are not listed.

System: nude mice, HT29 intrarenal xenograft, tumor weight T/C
Test: NCI In Vivo Anticancer Drug Screen. Data for tumor model HT29;CX-1 Human Adenocarcinoma (MER+) (intrarenal inoculation) in NU/NU Swiss (nude) mice
Conditions: endpoint: mean tumor weight change, higher = larger tumour
Protocol: The antitumor activity of compounds was measured in mice bearing transplantable tumors. Survival or tumor size were measured and the results are expressed as the measurement made in the treated group (T) divided by the measurement made in the vehicle treated control group (C). The tumor model used in this assay is HT29;CX-1 Human Adenocarcinoma (MER+) (intrarenal inoculation) in NU/NU Swiss (nude) mice

[1] = dose: 300.0 mg/kg/injection, schedule: Q04DX004 (sc), vehicle: saline with Tween-80
[2] = dose: 600.0 mg/kg/injection, schedule: Q04DX004 (sc), vehicle: saline with Tween-80
[3] = dose: 100.0 mg/kg/injection, schedule: Q01DX010 (sc), vehicle: Klucel (hydroxypropylcellulose) (HPC)
[4] = dose: 200.0 mg/kg/injection, schedule: Q01DX010 (sc), vehicle: Klucel (hydroxypropylcellulose) (HPC)
[5] = dose: 300.0 mg/kg/injection, schedule: Q04DX004 (sc), vehicle: Klucel (hydroxypropylcellulose) (HPC)
[6] = dose: 600.0 mg/kg/injection, schedule: Q04DX004 (sc), vehicle: Klucel (hydroxypropylcellulose) (HPC)
[7] = dose: 25.0 mg/kg/injection, schedule: Q04DX004 (sc), vehicle: water
[8] = dose: 50.0 mg/kg/injection, schedule: Q04DX004 (sc), vehicle: water
[9] = dose: 100.0 mg/kg/injection, schedule: Q04DX004 (sc), vehicle: water

Oc1c(Cl)cc(C(c2cc(Cl)c(O)c(Cl)c2)C(c2cc(Cl)c(O)c(Cl)c2)c2cc(Cl)c(O)c(Cl)c2)cc1Cl
T/C (dose: 450.0 mg/kg/injection, schedule: Q04DX004 (sc), vehicle: Klucel (hydroxypropylcellulose) (HPC)): 104 % of control
T/C (dose: 900.0 mg/kg/injection, schedule: Q04DX004 (sc), vehicle: Klucel (hydroxypropylcellulose) (HPC)): 95 % of control
T/C (dose: 1800.0 mg/kg/injection, schedule: Q04DX004 (sc), vehicle: Klucel (hydroxypropylcellulose) (HPC)): 96 % of control

CC[C@@]1(O)C[C@H](OC2CC(N(C)C)C(OC3CC(O)C(OC4CCC(=O)C(C)O4)C(C)O3)C(C)O2)c2c(cc3c(c2O)C(=O)c2c(O)ccc(O)c2C3=O)[C@H]1C(=O)OC (some centres not stated)
T/C (dose: 3.0 mg/kg/injection, schedule: Q04DX004 (sc), vehicle: water): 12 % of control
T/C (dose: 6.0 mg/kg/injection, schedule: Q04DX004 (sc), vehicle: water): -24 % of control

O=C1C2CC=CCC2C(=O)N1SC(Cl)(Cl)Cl (configuration not stated)
T/C (dose: 18.75 mg/kg/injection, schedule: Q04DX004 (sc), vehicle: saline with Tween-80): 96 % of control
T/C (dose: 37.5 mg/kg/injection, schedule: Q04DX004 (sc), vehicle: saline with Tween-80): 88 % of control
T/C [1]: 101 % of control
T/C [2]: 71 % of control

CO[C@H]1Nc2c(ccc(C)c2O)C(=O)N2C=C(/C=C/C(N)=O)C[C@@H]12
T/C (dose: 0.5 mg/kg/injection, schedule: Q04DX004 (sc), vehicle: saline + alcohol): 98 % of control
T/C (dose: 1.0 mg/kg/injection, schedule: Q04DX004 (sc), vehicle: saline + alcohol): 54 % of control

Nc1ccccc1N
T/C [3]: 206 % of control
T/C [4]: 115 % of control

CC1(C)CC(=O)C(CSC(=O)c2ccccc2)C(=O)C1
T/C (dose: 25.0 mg/kg/injection, schedule: Q01DX010 (sc), vehicle: Klucel (hydroxypropylcellulose) (HPC)): 79 % of control
T/C [3]: 120 % of control

COC(=O)C(Cl)(Cl)N=Nc1c(Cl)cc(Cl)c(C)c1Cl
T/C (dose: 225.0 mg/kg/injection, schedule: Q04DX004 (sc), vehicle: saline with Tween-80): 87 % of control
T/C (dose: 450.0 mg/kg/injection, schedule: Q04DX004 (sc), vehicle: saline with Tween-80): 105 % of control
T/C (dose: 900.0 mg/kg/injection, schedule: Q04DX004 (sc), vehicle: saline with Tween-80): 81 % of control
T/C (dose: 1800.0 mg/kg/injection, schedule: Q04DX004 (sc), vehicle: saline with Tween-80): 115 % of control

CC1=C(/C=C/C(C)=C/C=C/C(C)=C/C=O)C(C)(C)CCC1
T/C (dose: 150.0 mg/kg/injection, schedule: Q04DX004 (sc), vehicle: saline with Tween-80): 61 % of control
T/C [1]: 62 % of control
T/C [2]: 67 % of control

S=P(N1CC1)(N1CC1)N1CC1
T/C (dose: 1.0 mg/kg/injection, schedule: Q01DX010 (sc), vehicle: saline): 34 % of control
T/C (dose: 2.0 mg/kg/injection, schedule: Q01DX010 (sc), vehicle: saline): 80 % of control

F[B-](F)(F)F
T/C (dose: 225.0 mg/kg/injection, schedule: Q04DX004 (sc), vehicle: gum acacia): 106 % of control
T/C (dose: 450.0 mg/kg/injection, schedule: Q04DX004 (sc), vehicle: gum acacia): 85 % of control
T/C (dose: 900.0 mg/kg/injection, schedule: Q04DX004 (sc), vehicle: gum acacia): 69 % of control

CN1CCc2c(c3ccccc3c3ccccc23)C1
T/C (dose: 150.0 mg/kg/injection, schedule: Q04DX004 (sc), vehicle: Klucel (hydroxypropylcellulose) (HPC)): 105 % of control
T/C [5]: 80 % of control
T/C [6]: 111 % of control

COC1=C(C)C(=O)C2=C(C1=O)C1C3CC4=C(C(=O)C(OC)=C(C)C4=O)C(CNC(=O)C(C)=O)N3C(C#N)C(C2)N1C (configuration not stated)
T/C (dose: 1.0 mg/kg/injection, schedule: Q04DX004 (sc), vehicle: Klucel (hydroxypropylcellulose) (HPC)): 99 % of control
T/C (dose: 2.0 mg/kg/injection, schedule: Q04DX004 (sc), vehicle: Klucel (hydroxypropylcellulose) (HPC)): 75 % of control

COC1CC(C)C(OC)C2=CC(=O)C=C(NC(=O)/C(C)=C/C=C\C(C)C(OC(N)=O)/C(C)=C\C(C)C1OC)C2=O (configuration not stated)
T/C (dose: 12.5 mg/kg/injection, schedule: Q04DX004 (sc), vehicle: saline + alcohol): 99 % of control
T/C (dose: 25.0 mg/kg/injection, schedule: Q04DX004 (sc), vehicle: saline + alcohol): 73 % of control
T/C (dose: 50.0 mg/kg/injection, schedule: Q04DX004 (sc), vehicle: saline + alcohol): 53 % of control

CS(=O)(=O)CS(=O)(=O)OCCCl
T/C (dose: 37.5 mg/kg/injection, schedule: Q04DX004 (sc), vehicle: suspension in saline): 363 % of control
T/C (dose: 75.0 mg/kg/injection, schedule: Q04DX004 (sc), vehicle: suspension in saline): 187 % of control
T/C (dose: 150.0 mg/kg/injection, schedule: Q04DX004 (sc), vehicle: suspension in saline): 150 % of control

OCCN1CCN(CC/C=C2/c3ccccc3Sc3ccc(Cl)cc32)CC1
T/C (dose: 25.0 mg/kg/injection, schedule: Q04DX004 (sc), vehicle: saline): 160 % of control
T/C (dose: 50.0 mg/kg/injection, schedule: Q04DX004 (sc), vehicle: saline): 87 % of control
T/C (dose: 100.0 mg/kg/injection, schedule: Q04DX004 (sc), vehicle: saline): 82 % of control
T/C (dose: 200.0 mg/kg/injection, schedule: Q04DX004 (sc), vehicle: saline): 40 % of control

CC(=O)C(=O)O.CC(=O)C(=O)O.[NH-]C1CCCCC1[NH-].[Pt+2] (configuration not stated)
T/C (dose: 15.0 mg/kg/injection, schedule: Q04DX004 (sc), vehicle: other): 64 % of control
T/C (dose: 30.0 mg/kg/injection, schedule: Q04DX004 (sc), vehicle: other): 64 % of control
T/C (dose: 60.0 mg/kg/injection, schedule: Q04DX004 (sc), vehicle: other): 47 % of control

COc1cccc2c1C(=N)c1c(O)c3c(c(O)c1C2=O)C[C@@](O)(C(C)=O)C[C@@H]3OC1CC(N)C(O)C(C)O1 (some centres not stated)
T/C (dose: 10.0 mg/kg/injection, schedule: Q04DX004 (sc), vehicle: water): 102 % of control
T/C (dose: 40.0 mg/kg/injection, schedule: Q04DX004 (sc), vehicle: water): 53 % of control

COc1cccc2c1C(=O)c1c(O)c3c(c(O)c1C2=O)CC(O)(/C(C)=N/NC(=O)CCCCC(=O)N/N=C(\C)C1(O)Cc2c(O)c4c(c(O)c2C(OC2CC(N)C(O)C(C)O2)C1)C(=O)c1c(OC)cccc1C4=O)CC3OC1CC(N)C(O)C(C)O1 (configuration not stated)
T/C (dose: 12.5 mg/kg/injection, schedule: Q04DX004 (sc), vehicle: water): 66 % of control
T/C [7]: 98 % of control
T/C [8]: 104 % of control
T/C [9]: 152 % of control

O=c1[nH]c(=O)c2nc(-c3cccnc3)cnc2[nH]1
T/C (dose: 100.0 mg/kg/injection, schedule: Q04DX004 (sc), vehicle: Klucel (hydroxypropylcellulose) (HPC)): 68 % of control
T/C (dose: 200.0 mg/kg/injection, schedule: Q04DX004 (sc), vehicle: Klucel (hydroxypropylcellulose) (HPC)): 85 % of control
T/C (dose: 400.0 mg/kg/injection, schedule: Q04DX004 (sc), vehicle: Klucel (hydroxypropylcellulose) (HPC)): 102 % of control
T/C (dose: 800.0 mg/kg/injection, schedule: Q04DX004 (sc), vehicle: Klucel (hydroxypropylcellulose) (HPC)): 77 % of control

C(CC1CO1)C1CO1 (configuration not stated)
T/C (dose: 50.0 mg/kg/injection, schedule: Q01DX010 (sc), vehicle: saline): 35 % of control
T/C (dose: 100.0 mg/kg/injection, schedule: Q01DX010 (sc), vehicle: saline): 37 % of control

c1cc(OCC2CO2)ccc1OCC1CO1 (configuration not stated)
T/C (dose: 200.0 mg/kg/injection, schedule: Q04DX004 (sc), vehicle: saline with Tween-80): 79 % of control
T/C (dose: 400.0 mg/kg/injection, schedule: Q04DX004 (sc), vehicle: saline with Tween-80): 106 % of control

Cc1cc(N(CCOS(C)(=O)=O)CCOS(C)(=O)=O)ccc1C=Nc1ccc(-c2nc(Cc3ccccc3)sc2C)cc1
T/C (dose: 50.0 mg/kg/injection, schedule: Q01DX010 (sc), vehicle: Klucel (hydroxypropylcellulose) (HPC)): 92 % of control
T/C [3]: 80 % of control
T/C [4]: 117 % of control

O=C1c2ccccc2C(=O)c2c3c(cc(NCCNCCO)c21)N(CCO)CCN3
T/C (dose: 100.0 mg/kg/injection, schedule: Q04DX004 (sc), vehicle: DMSO): 168 % of control
T/C (dose: 200.0 mg/kg/injection, schedule: Q04DX004 (sc), vehicle: DMSO): 112 % of control
T/C (dose: 400.0 mg/kg/injection, schedule: Q04DX004 (sc), vehicle: DMSO): 59 % of control
T/C (dose: 800.0 mg/kg/injection, schedule: Q04DX004 (sc), vehicle: DMSO): 104 % of control

Nc1n[n+](-c2ccc(Cl)cc2)no1
T/C [7]: 95 % of control
T/C [8]: 121 % of control
T/C [9]: 102 % of control

Ic1ncnc2c1ncn2C1CCCO1 (configuration not stated)
T/C [5]: 55 % of control
T/C [6]: 112 % of control
T/C (dose: 2400.0 mg/kg/injection, schedule: Q04DX004 (sc), vehicle: Klucel (hydroxypropylcellulose) (HPC)): 72 % of control
